Test results taken from patent US11925669B2, “Chinese herbal medicine composition having a function of reducing uric acid” (Infinitus (China) Company Ltd., priority 2013, dated 2024).
Marks after values point to notes of the source that are not given here.

Tests used:
[1] = tested on: rat model of hyperuricemia; test: Reducing uric acid in the rat model of hyperuricemia (Oteracil potassium), 30 d intragastric administration; type: in vivo, SD Rat; conditions: for UA Reduction: day 30, calculated in comparison with Model control group
Description: Examine the effect of the Chinese herbal composition of the present invention for reducing uric acid in the rat model of hyperuricemia. Animals were assigned randomly into: Blank control group, Sample control group, Model control group, Test group, and Positive control group. Each group consisted of 10 animals. […] They were randomly assigned into 5 groups, each group consisting of 10 animals, the body weight distribution of each group of rats is similar. […] Blank control group was administrated with 17 ml/kg of distilled water intragastrically every afternoon, Sample control group was administrated with 17 ml/kg of test sample intragastrically every afternoon, Model control group was administrated with distilled water intragastrically in the afternoon, Positive control group was administrated with allopurinol intragastrically in the afternoon, and Test group was administrated with 17 ml/kg of test sample intragastrically in the afternoon. Additionally, for Model control group, Positive control group and Test group, each group was administrated with Oteracil potassium intragastrically every morning. The administration was conducted daily for 30 days. Prior to experiments, the rats were fastened for 12 h (but water was provided) and then about 1 ml of blood were taken from orbital veniplex with glass capillary tube. Sera were separated for measuring the pre-testing level of uric acid. On day 30, blood were taken in the same manner and sera were separated for measuring the serum levels of uric acid, creatinine, and urea nitrogen. Modeling principle: Rats were intragastrically administrated with Oteracil potassium, a chemical inhibitor of uricase, to inhibit the activity of uricase in the body of rats, rendering uric acid in the body of rats unable to breakdown, causing the accumulation of uric acid produced in the serum, so as to produce a rat model of hyperuricemia. Model control group: 17 ml/kg*d of distilled water was administrated intragastrically, once daily for 30 days; Test sample prevention group: 17 ml/kg*d of test sample was administrated intragastrically, once daily for 30 days; Positive control group: 17 ml/kg*d of positive control allopurinolis administrated intragastrically, once daily for 30 days. Observation of Body weight: The growing condition of animals were observed by weighing prior to administration and on Day 30 of administration. Blood were taken prior to administration and on Day 30 of administration to measure uric acid, creatinine, urea nitrogen, to calculate the changing rate of uric acid level in serum. The changing rate of uric acid in serum=(uric acid value in serum after experiment-uric acid value in serum prior to experiment)/uric acid value in serum prior to […]100% ANOVA (analysis of variance) was used. Firstly, homogeneous variance test was carried out, and F values were calculated.

[2] = tested on: rat model of hyperuricemia; test: as above; type: in vivo, SD Rat; conditions: hyperuricemia model rats, X ± S
[3] = hyperuricemia model rats, intragastric once daily, day 30, X ± S

Oc1ncnc2[nH]ncc12 [allopurinol]
30 d weight ([1]; hyperuricemia model rats, body weight after 30 days, X ± S): 254.4 ± 23.1 g
UA Reduction ([1]; hyperuricemia model rats): 53.4%
UA Reduction ([1]; hyperuricemia model rats, listed as Positive control): ↓53.4%
BUN level in the sera of rats upon 30 d administration [1, 3]: 5.53 ± 0.79 mM
UA level in the sera of rats upon 30 d administration [1, 3]: 63.20 ± 17.19** μmol/L
Blood/serum UA level change in words ([1]; in comparison with Model control group, 30 d oral administration): significant reduction
General status observation (appearance, activities, excrement characters) ([1]; in comparison with Model control group, observed daily): no significant difference
10 d weight ([2]; body weight after 10 days): 185.7 ± 15.9 g
20 d weight ([2]; body weight after 20 days): 224.2 ± 21.8 g
